Structures are written as SMILES. Several values for one entry are separate records, joined by “and”; a condition that tells them apart may be missing. Equal values may be shown once.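 All cell lines were grown in 96-well plates and treated with compound for 48 hours. Abbreviation: GI50, concentration required for 50% inhibition of growth. TGI denotes the concentration required for complete inhibition of growth.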

Common to all, as to test: NCI-60 cell line screen, 48 h
For test [1], the system named is 786-0 renal.
In test [2] the test system is RPMI-8226 leukemia.
Test [3] deals with SNB-19 CNS.
The test system of test [4] is LOX IMVI melanoma.
The subject of test [5] is M14 melanoma.
Test [6] relates to SN12C renal.
The test system of test [7] is HCT-15 colon.
In test [8] the test system is SR leukemia.
Test [9] concerns HCT-116 colon.

As to `O=S(=O)(C1=CC(S(=O)(=O)c2ccccc2)COC1)c1ccccc1` (stereo not drawn), the TGI in [1], in test [2], in test [3], in [4], in test [5] and in test [6] was over 100 µM each time. In addition, the TGI in [7], in test [8] and in test [9] was over 100 µM each time.
Consider `CCCCCCCCSC(=O)NCCCC`, for which the TGI was over 100 µM in test [1]; 57.9 µM in test [2]; over 100 µM in test [3]; 40.2 µM in [4]; 79 µM in test [5]; over 100 µM in test [6]. The compound further yielded a TGI in test [7] of 96.8 µM.
Consider `C/C(=C1/N=C(c2cc([N+](=O)[O-])ccc2Cl)N(c2ccc(Br)cc2)C1=O)c1ccc(N(CCC#N)CCC#N)cc1C`, for which the TGI in test [1] was over 100 µM; in [2], 77.2 µM; in [3], over 100 µM; in test [4] it was 29.1 µM; in test [5], over 100 µM; in test [6], over 100 µM. Further, the TGI worked out at 58.7 µM in test [7], 42.1 µM in test [8] and 29.5 µM in test [9].
For the compound `Cc1ccccc1/C=C/c1csnn1`, the TGI in test [1] is over 100 µM; in test [2] it was 79.7 µM; in [3], over 100 µM; in test [4], over 100 µM; in [5], over 100 µM; in test [6], over 100 µM. Further, the TGI in [7] is over 57.5 µM; in test [8], over 100 µM; in [9], over 59.3 µM.
With `Cc1noc2cccc(O)c12`, the TGI in [1], in test [3], in test [4], in [5], in test [6] and in [7] was over 100 µM each time. The compound further gave a TGI in [9] of over 100 µM.
For `COC(=O)C(=O)C(CC(=O)Nc1cc(Cl)ccc1Cl)C(=O)OC` (stereo not drawn), the TGI in test [1], in test [2], in test [3], in [4], in [5] and in [6] was over 100 µM in each case. Moreover, the TGI in test [7], in test [8] and in test [9] was over 100 µM each time.
Consider `CC12Nc3ccccc3C1=C(c1ccccc1)CC1C(=O)OC(=O)C12` (stereo not drawn), for which the TGI in test [1], in test [2], in [3], in test [4], in [5] and in [6] was over 100 µM throughout. Also, the TGI in test [7] and in test [9] was over 100 µM in each case.
As for `Nc1cn(C2OC(CC(c3ccccc3)(c3ccccc3)c3ccccc3)C(O)C2O)c(=O)[nH]c1=O` (stereo not drawn), the TGI in [1] was 59.1 µM; in [2] it was 42 µM; in test [3], over 100 µM; in test [4], 35.2 µM; in test [5] it was 48.6 µM; in test [6], 49.4 µM. Besides, the TGI in [7] was found to be 33.3 µM; in [8], 39.9 µM; in [9], 32 µM.
With `NC(CCSCC(F)(F)F)C(=O)O` (stereo not drawn), the TGI in test [1], in test [3], in test [4], in [5], in test [6] and in test [7] was over 100 µM each time. Moreover, the TGI in test [8] and in [9] was over 100 µM throughout.
Turning to `COc1cccc(/C=N/[N-]C(=O)c2ccncc2)c1[O-].[Mn+2].[OH3+]`, the GI50 in [1] is 5.43 µM; in test [2], 6 µM; in test [3] it was 42 µM; in test [4], 6.59 µM; in test [5], 7.96 µM; in test [6] it was 17.8 µM. The GI50 in test [7] was 4.14 µM; in test [8], 3.63 µM; in test [9], 3.63 µM. Besides, the TGI in test [1] was over 100 µM; in [2], over 100 µM; in [3] it was over 100 µM; in [4], over 100 µM; in [5] it was 52.4 µM; in test [6] it was over 100 µM. For the same compound, the TGI in [7], in [8] and in test [9] was over 100 µM throughout.
Consider `C[N+]1=C(c2cccnc2/C=N/O)OCC1(C)C`, for which the TGI in test [1], in test [3], in test [4], in test [5], in test [6] and in [7] was over 100 µM throughout. The TGI in [8] and in [9] was over 100 µM throughout.
Regarding `CC(=O)Nc1ccccc1-c1nc2ccccc2nc1-c1ccccc1`, the TGI in test [1], in test [2], in [3], in [5], in [6] and in [7] was over 100 µM each time. The TGI in test [8] and in test [9] was over 100 µM each time.
`O=C(Nc1cccc(C(F)(F)F)c1)C(=O)C(C(=O)c1ccc(Cl)c(Cl)c1)C1OC(=O)c2ccccc21` (stereo not drawn): the TGI in [1], in test [2], in test [3], in test [4], in [5] and in test [6] was over 100 µM throughout. The values for the TGI in [7], in test [8] and in test [9] were over 100 µM, over 100 µM and 34.7 µM, respectively.
In the case of `c1ccc2c(c1)[nH]c1cnc3c4ncccc4[nH]c3c12`, the TGI in test [1], in [2], in test [3], in [4], in test [5] and in [6] was over 100 µM each time. The TGI in test [7] and in test [9] was over 100 µM each time.
On to `CCOC(=O)c1oc2c(OC)ccc3c2c1CCC3`, for which the TGI in test [1], in test [2], in [3], in test [4], in [5] and in test [6] was over 100 µM throughout. In addition, the TGI in test [7] and in test [8] was over 100 µM throughout.
Regarding `O=C(CCC(=O)Nc1ccccc1C(F)(F)F)N/N=C1\C(=N\NC(=O)CCC(=O)Nc2ccccc2C(F)(F)F)C(c2ccc3c(c2)OCO3)Oc2ccccc21` (stereo not drawn), the TGI in [1], in test [2], in [3], in [4], in test [5] and in [6] was over 100 µM each time. The TGI in test [7], in [8] and in test [9] was over 100 µM each time.
Regarding `CC(=O)NNc1nc(C)c(C(=O)NNC(=O)C(=O)Nc2ccc(Cl)c([N+](=O)[O-])c2)s1`, the TGI in test [1], in test [2], in test [3], in test [4], in test [5] and in [6] was over 100 µM in each case. Further, the TGI in test [7], in test [8] and in [9] was over 100 µM throughout.
In the case of `C/C(NNC(=O)c1ccccc1O)=C1\C=Nc2ccccc2S1`, the TGI in [1] is 29.3 µM; in test [2], over 100 µM; in test [3], over 100 µM; in test [4], over 100 µM; in [5], 31.1 µM; in test [6] it was 55.6 µM. Moreover, the TGI in test [8] and in test [9] was over 100 µM in each case.
Turning to `Cc1ccc2nc(NC(=O)C(=O)C(C(=O)c3ccc4ccccc4c3)C3OC(=O)c4ccccc43)sc2c1` (stereo not drawn), the TGI is 18.5 µM in test [1]; over 100 µM in test [2]; 26.4 µM in test [3]; 27.7 µM in test [4]; 28.2 µM in test [5]; 31.6 µM in [6]. The TGI in test [8] is 62.1 µM; in test [9] it was 20.8 µM.
For the compound `O=C1c2c(O)cccc2C(C(=O)CCCCCC(=O)C2c3cccc(O)c3C(=O)c3c(O)cccc32)c2cccc(O)c21`, the TGI is 21.6 µM in test [1]; 2.1 µM and 4.41 µM in [2]; 3.9 µM and 6.97 µM in [3]; 8.85 µM and 7.1 µM in test [4]; 2.5 µM and 16.8 µM in test [5]; 9.71 µM and 30 µM in test [6]. For the same compound, the TGI is 5.44 µM and 14.4 µM in test [7]; 4.33 µM in [8]; 25 µM and 14.9 µM in test [9]. Further, the GI50 in test [2] was 1.55 µM; in [3] it was 2.05 µM; in test [4], 1.95 µM; in test [5], 7.79 µM; in [6] it was 10.6 µM; in test [7] it was 7.25 µM. Besides, the GI50 in test [9] was 7.61 µM.
Turning to `Oc1ccc2ccccc2c1CCc1c(O)ccc2ccccc12`, the TGI is 34.9 µM in test [1]; 22 µM in test [2]; 32.4 µM in test [3]; 28 µM in test [4]; 29.5 µM in [5]; 23.3 µM in test [6]. Also, the TGI in test [7] stood at 28 µM; in [8] it was 32.6 µM; in [9], 25.1 µM.
For the compound `NCCOc1ccc(/C(=C(/Cl)c2ccccc2)c2ccccc2)cc1`, the TGI in test [1] turned out to be 20.7 µM; in test [2], 11 µM; in [3] it was 28.9 µM; in test [4], 16.6 µM; in [5] it was 5.29 µM; in test [6], 24 µM. In addition, the TGI came to 19.1 µM in test [7], 12.1 µM in test [8] and 20.2 µM in test [9].
With `CC(Oc1cc2oc(=O)cc(-c3ccccc3)c2cc1Cl)C(=O)O` (stereo not drawn), the TGI in test [1], in [3], in test [4], in test [5], in test [6] and in test [8] was over 100 µM in each case. In addition, the TGI in test [9] was over 100 µM.
In the case of `O=C(CCc1nc(=S)[nH][nH]1)Nc1cc(Cl)ccc1Cl`, the TGI in [1], in test [2], in test [3], in [5], in [6] and in [7] was over 100 µM in each case. For the same compound, the TGI in test [8] and in test [9] was over 100 µM throughout.
`C#CCN(N=O)C(=O)NC(CCCCNC(=O)OCc1ccccc1)C(=O)OCc1ccccc1` (stereo not drawn): the TGI was 32.5 µM in test [1]; 45.9 µM in test [2]; over 100 µM in test [3]; 59.1 µM in [4]; 56.6 µM in test [5]; 97.9 µM in [6]. Moreover, the TGI in [7] is 47.2 µM; in test [9], over 100 µM.
Regarding `COC(=O)C(C(=O)C(=O)Nc1ccc(C)cc1)c1nc2ccc([N+](=O)[O-])cc2[nH]c1=O` (stereo not drawn), the TGI in test [1], in [3], in [4], in test [5], in test [6] and in test [7] was over 100 µM throughout. The TGI in [8] and in test [9] was over 100 µM throughout.
As to `CCCCC(C(=O)C(=O)Nc1ccc(C)cc1C)C(=O)C(C)C` (stereo not drawn), the TGI in test [1], in [2], in test [3], in test [4], in [5] and in [6] was over 100 µM in each case. Further, the TGI in [7] and in test [9] was over 100 µM in each case.
For `O=C1OC(CC(=O)c2ccc(F)cc2)C(Cl)=C1Cl` (stereo not drawn), the TGI in test [1] is 34.3 µM; in test [2], over 100 µM; in test [3], 47 µM; in test [4] it was 31.9 µM; in test [5] it was 56.6 µM; in [6] it was 35.3 µM. The TGI was 35.5 µM in test [7], 79 µM in test [8] and 46.2 µM in [9].
`NC1=NN(c2ccccc2)C(=O)C1C(=O)C(=O)Nc1ccc(Cl)cc1` (stereo not drawn): the TGI in [1], in test [2], in test [4], in test [5], in test [6] and in [7] was over 100 µM throughout. The TGI in test [8] and in test [9] was over 100 µM throughout.

The record behind these values is PubChem BioAssay (NCI).
